Source: ChEMBL document CHEMBL1139321, “Discovery of novel spirocyclopropyl hydroxamate and carboxylate compounds as TACE inhibitors” (Bioorg Med Chem Lett, 2009)

Columns and labels:
[1] = biological target: Disintegrin and metalloproteinase domain-containing protein 17 (Homo sapiens, UniProt P78536)
Description: Inhibition of TACE catalytic domain by FRET assay

Blood = experiment: Inhibition of LPS-induced TNFalpha production in human whole blood after 1 hr by ELISA; assay type: functional, tissue-based

Sequence of Disintegrin and metalloproteinase domain-containing protein 17 (P78536 whole entry, the tested form may be a part): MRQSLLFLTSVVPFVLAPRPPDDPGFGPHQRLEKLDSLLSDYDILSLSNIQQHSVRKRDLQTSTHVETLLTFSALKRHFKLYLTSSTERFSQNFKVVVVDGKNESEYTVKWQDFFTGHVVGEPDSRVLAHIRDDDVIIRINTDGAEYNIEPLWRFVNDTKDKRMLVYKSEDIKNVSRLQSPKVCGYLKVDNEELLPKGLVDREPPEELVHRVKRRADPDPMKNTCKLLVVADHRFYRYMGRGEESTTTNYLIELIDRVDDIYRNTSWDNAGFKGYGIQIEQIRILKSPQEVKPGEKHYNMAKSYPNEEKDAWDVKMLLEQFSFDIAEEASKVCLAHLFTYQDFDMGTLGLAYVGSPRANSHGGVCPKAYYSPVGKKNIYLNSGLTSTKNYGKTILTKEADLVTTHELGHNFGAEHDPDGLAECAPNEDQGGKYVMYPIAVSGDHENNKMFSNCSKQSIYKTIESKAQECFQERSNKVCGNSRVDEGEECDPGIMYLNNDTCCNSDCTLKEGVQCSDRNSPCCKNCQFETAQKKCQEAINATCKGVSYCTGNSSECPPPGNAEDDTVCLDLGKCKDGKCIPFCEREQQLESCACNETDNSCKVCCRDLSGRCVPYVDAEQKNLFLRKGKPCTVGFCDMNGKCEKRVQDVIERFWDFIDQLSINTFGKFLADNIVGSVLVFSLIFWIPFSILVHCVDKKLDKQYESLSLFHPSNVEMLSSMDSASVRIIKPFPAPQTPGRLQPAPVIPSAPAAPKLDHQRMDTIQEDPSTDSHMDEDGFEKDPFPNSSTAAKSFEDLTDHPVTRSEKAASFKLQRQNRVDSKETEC

SMILES	Ki [1] [nM]	IC50 (Blood) [nM]
COC(=O)[C@H]1C[C@@]12CC(c1ccc(OCc3cc(-c4ccccc4)nc4ccccc34)c(F)c1)N(C)C2=O (mixture of isomers)	> 50000	
Cc1cc(COc2ccc(C3C[C@@]4(C[C@@H]4C(=O)NO)C(=O)N3)cc2)c2ccccc2n1 (stereo partly specified)	32	
O=C(NO)[C@H]1C[C@@]12CC(c1ccc(OCc3cc(-c4ccccc4)nc4ccccc34)cc1)NC2=O (mixture of isomers)	30	> 100
O=C(NO)[C@H]1C[C@@]12CC(c1ccc(OCc3cc(-c4ccncc4)nc4ccccc34)cc1)NC2=O (stereo partly specified)	33	
O=C(O)[C@H]1C[C@@]12CC(c1ccc(OCc3cc(-c4cccnc4)nc4ccccc34)cc1)NC2=O (mixture of isomers)	3220	
O=C(O)[C@H]1C[C@@]12CC(c1ccc(OCc3cc(-c4ccccc4)nc4ccccc34)c(F)c1)NC2=O (mixture of isomers)	40	> 100
CN1C(=O)[C@@]2(CC1c1ccc(OCc3cc(-c4ccccc4)nc4ccccc34)c(F)c1)C[C@@H]2C(=O)NO (mixture of isomers)	137	
O=C(NO)[C@H]1C[C@@]12CC(c1ccc(OCc3cc(C(F)(F)F)nc4ccccc34)cc1)NC2=O (mixture of isomers)	53	> 100
O=C(O)[C@H]1C[C@@]12CC(c1ccc(OCc3cc(C(F)(F)F)nc4ccccc34)cc1)NC2=O (mixture of isomers)	2140	> 100
O=C(O)[C@H]1C[C@@]12CC(c1ccc(OCc3cc(-c4ccncc4)nc4ccccc34)cc1)NC2=O (mixture of isomers)	673	
Cc1cc(COc2ccc(C3C[C@@]4(C[C@@H]4C(=O)O)C(=O)N3)cc2)c2ccccc2n1 (mixture of isomers)	3070	
O=C(O)[C@H]1C[C@@]12CC(c1ccc(OCc3cc(-c4ccccc4)nc4ccccc34)cc1)NC2=O (mixture of isomers)	143	> 100
O=C(NO)[C@H]1C[C@@]12CC(c1ccc(OCc3cc(-c4cccnc4)nc4ccccc34)cc1)NC2=O (mixture of isomers)	32	
CN1C(=O)[C@@]2(CC1c1ccc(OCc3cc(-c4ccccc4)nc4ccccc34)c(F)c1)C[C@@H]2C(=O)O (mixture of isomers)	94	
O=C(NO)[C@H]1C[C@@]12CC(c1ccc(OCc3cc(-c4ccccc4)nc4ccccc34)c(F)c1)NC2=O (mixture of isomers)	6.7	> 100
